Measured values as given in ChEMBL document CHEMBL3885881, “DrugMatrix”.

Organism: Rattus norvegicus
Test: DrugMatrix - Regimen: Daily Repeat
Type: toxicity, organism-based, Sprague-Dawley
Design: regimen Daily Repeat, gender Male, age 6-8 weeks
Settings: in vivo, po, 0 mg/kg, route oral GAVAGE, dose level Control, vehicle .5 % CMC; for ABSOLUTE BASOPHIL / ABSOLUTE EOSINOPHIL / ABSOLUTE LYMPHOCYTE / ABSOLUTE MONOCYTE / ABSOLUTE SEGMENTED NEUTROPHIL / BASOPHIL / EOSINOPHIL / ERYTHROCYTE COUNT / HEMATOCRIT / HEMOGLOBIN / LEUKOCYTE COUNT / LYMPHOCYTE / MEAN CORPUSCULAR HEMOGLOBIN / MEAN CORPUSCULAR HEMOGLOBIN CONCENTRATION / MEAN CORPUSCULAR VOLUME / MONOCYTE / NEUTROPHIL / NUCLEATED RED BLOOD CELLS / PLATELET COUNT: tissue Blood; for ALANINE AMINOTRANSFERASE / ALBUMIN / ALKALINE PHOSPHATASE / ASPARTATE AMINOTRANSFERASE / BLOOD UREA NITROGEN / CARBON DIOXIDE / CHLORIDE / CHOLESTEROL / CREATINE PHOSPHOKINASE / CREATININE / GLUCOSE / LACTATE DEHYDROGENASE / LIPASE / PHOSPHORUS / POTASSIUM / SODIUM / TOTAL BILIRUBIN / TOTAL PROTEIN / URIC ACID: tissue Plasma

COc1cc(OC)c(C(=O)CCCN2CCCC2)c(OC)c1 [BUFLOMEDIL]
ABSOLUTE BASOPHIL (72 h, time 3 day): 0 CELLS/uL | ABSOLUTE EOSINOPHIL (72 h, time 3 day): 0 CELLS/uL | ABSOLUTE LYMPHOCYTE (72 h, time 3 day): 10913.67 CELLS/uL | ABSOLUTE MONOCYTE (72 h, time 3 day): 85.33 CELLS/uL | ABSOLUTE SEGMENTED NEUTROPHIL (72 h, time 3 day): 1401 CELLS/uL | BASOPHIL (72 h, time 3 day): 0% | EOSINOPHIL (72 h, time 3 day): 0% | ERYTHROCYTE COUNT (72 h, time 3 day): 5.57 x10E6/uL | HEMATOCRIT (72 h, time 3 day): 35.58% | HEMOGLOBIN (72 h, time 3 day): 13.8 G/DL | LEUKOCYTE COUNT (72 h, time 3 day): 12.4 x10E3/uL | LYMPHOCYTE (72 h, time 3 day): 88% | MEAN CORPUSCULAR HEMOGLOBIN (72 h, time 3 day): 24.78 pg | MEAN CORPUSCULAR HEMOGLOBIN CONCENTRATION (72 h, time 3 day): 38.82 G/DL | MEAN CORPUSCULAR VOLUME (72 h, time 3 day): 63.88 fL | MONOCYTE (72 h, time 3 day): 0.67% | NEUTROPHIL (72 h, time 3 day): 11.33% | NUCLEATED RED BLOOD CELLS (72 h, time 3 day): 0 /100WBC | PLATELET COUNT (72 h, time 3 day): 1162.33 x10E3/uL | ALANINE AMINOTRANSFERASE (72 h, time 3 day): 53 u/L | ALBUMIN (72 h, time 3 day): 4.17 G/DL | ALKALINE PHOSPHATASE (72 h, time 3 day): 374.5 u/L | ASPARTATE AMINOTRANSFERASE (72 h, time 3 day): 89.5 u/L | BLOOD UREA NITROGEN (72 h, time 3 day): 16.33 mg/dL | CARBON DIOXIDE (72 h, time 3 day): 29.17 mmol/L | CHLORIDE (72 h, time 3 day): 97.67 MEQ/L | CHOLESTEROL (72 h, time 3 day): 77 mg/dL | CREATINE PHOSPHOKINASE (72 h, time 3 day): 464.83 u/L | CREATININE (72 h, time 3 day): 0.14 mg/dL | GLUCOSE (72 h, time 3 day): 164 mg/dL | LACTATE DEHYDROGENASE (72 h, time 3 day): 155.5 u/L | LIPASE (72 h, time 3 day): 9.17 u/L | PHOSPHORUS (72 h, time 3 day): 12.4 mg/dL | POTASSIUM (72 h, time 3 day): 6.91 MEQ/L | SODIUM (72 h, time 3 day): 141.47 MEQ/L | TOTAL BILIRUBIN (72 h, time 3 day): 0.2 mg/dL | TOTAL PROTEIN (72 h, time 3 day): 5.95 G/DL | URIC ACID (72 h, time 3 day): 1.72 mg/dL | ABSOLUTE BASOPHIL (120 h, time 5 day): 0 CELLS/uL | ABSOLUTE EOSINOPHIL (120 h, time 5 day): 20.5 CELLS/uL | ABSOLUTE LYMPHOCYTE (120 h, time 5 day): 13871.67 CELLS/uL | ABSOLUTE MONOCYTE (120 h, time 5 day): 60.5 CELLS/uL | ABSOLUTE SEGMENTED NEUTROPHIL (120 h, time 5 day): 980.67 CELLS/uL | BASOPHIL (120 h, time 5 day): 0% | EOSINOPHIL (120 h, time 5 day): 0.17% | ERYTHROCYTE COUNT (120 h, time 5 day): 5.65 x10E6/uL | HEMATOCRIT (120 h, time 5 day): 35.63% | HEMOGLOBIN (120 h, time 5 day): 14.08 G/DL | LEUKOCYTE COUNT (120 h, time 5 day): 14.93 x10E3/uL | LYMPHOCYTE (120 h, time 5 day): 92.83% | MEAN CORPUSCULAR HEMOGLOBIN (120 h, time 5 day): 24.97 pg | MEAN CORPUSCULAR HEMOGLOBIN CONCENTRATION (120 h, time 5 day): 39.55 G/DL | MEAN CORPUSCULAR VOLUME (120 h, time 5 day): 63.13 fL | MONOCYTE (120 h, time 5 day): 0.33% | NEUTROPHIL (120 h, time 5 day): 6.67% | NUCLEATED RED BLOOD CELLS (120 h, time 5 day): 0 /100WBC | PLATELET COUNT (120 h, time 5 day): 1248.17 x10E3/uL | ALANINE AMINOTRANSFERASE (120 h, time 5 day): 45.17 u/L | ALBUMIN (120 h, time 5 day): 4.27 G/DL | ALKALINE PHOSPHATASE (120 h, time 5 day): 405.67 u/L | ASPARTATE AMINOTRANSFERASE (120 h, time 5 day): 74.17 u/L | BLOOD UREA NITROGEN (120 h, time 5 day): 15.5 mg/dL | CARBON DIOXIDE (120 h, time 5 day): 30.17 mmol/L | CHLORIDE (120 h, time 5 day): 100.67 MEQ/L | CHOLESTEROL (120 h, time 5 day): 57 mg/dL | CREATINE PHOSPHOKINASE (120 h, time 5 day): 239.5 u/L | CREATININE (120 h, time 5 day): 0.17 mg/dL | GLUCOSE (120 h, time 5 day): 165.67 mg/dL | LACTATE DEHYDROGENASE (120 h, time 5 day): 90.5 u/L | LIPASE (120 h, time 5 day): 8.83 u/L | PHOSPHORUS (120 h, time 5 day): 12.32 mg/dL | POTASSIUM (120 h, time 5 day): 7.03 MEQ/L | SODIUM (120 h, time 5 day): 142.65 MEQ/L | TOTAL BILIRUBIN (120 h, time 5 day): 0.18 mg/dL | TOTAL PROTEIN (120 h, time 5 day): 6.03 G/DL | URIC ACID (120 h, time 5 day): 1.98 mg/dL
